Source: US8937154B2, “Stabilized therapeutic small helical antiviral peptides” (priority 2006, dated 2015)
Where a SMILES comes first, the peptide text is derived from it. Bridges are numbered along the chain shown (N, C = ends). [ ]: non-standard residue; d: D form. The star is where a group is joined. FITC = O=C1OC2(c3ccc(O)cc3Oc3cc(O)ccc32)c2ccc(NC(=S)*)cc21; R8 = C=CCCCCCC[C@@](C)(N)C(=O)O; S5 = C=CCCC[C@](C)(N)C(=O)O; βAla = NCCC(=O)O

Key:
[1] = test system: HIV-IIIB; test: Viral re-infection assay: infectivity of virions released by treated HIV-1 infected MT-2 cells; assay type: cell-based
Procedure: The infectivity potential of the virions released by HIV-1 infected MT-2 cells treated with different concentrations of small stapled peptides. […] Control cells were untreated or treated with 1 ug/ml of AMD3100 (CXCR-4 receptor inhibitor). Following overnight incubation the medium was completely removed and replaced with fresh medium. On the fourth day post-infection the supernatants were collected. One aliquot of each sample was mixed 1:1 with a solution of 5% Triton X-100 for p24 quantification, and stored at 4° C., another aliquot was immediately frozen at −80° C. and used to compare the infectivity of the viral particles released by treated cells to the viral particles released by untreated cells. Following p24 quantification by sandwich-ELISA MT-2 cells were infected with viral samples normalized for the p24 content to calculate the TCID50. Following overnight incubation ¾ of the medium containing the inoculum was replaced with fresh medium. On the fourth day post infection supernatants were collected for p24 quantification and the TCID50 was calculated by the Spearman-Karber statistical method.
Therefore, to infect MT-2 cells we used the maximum quantities of supernatants possible.

[2] = test system: HIV-1 IIIB; test: Western blot of p24 and p55 after treatment of HIV-1 IIIB infected MT-2 cells; assay type: cell-based; conditions: anti-p24 mAb, graded concentrations, vs positive untreated control
Procedure: Control cells were uninfected MT-2 or infected and untreated MT-2. Following overnight incubation the culture supernatant was completely removed and replaced with fresh medium. On the fourth day post-infection cells and virus supernatants were harvested. The supernatants were filtered and ultra-centrifuged through a 20% sucrose cushion for 2 hr at 27,000 rpm with a SW28 rotor to concentrate the viral particles. Viral pellets were slowly re-suspended and lysed. Cells were collected and processed for protein extraction. […] Proteins were then visualized by Western Blot and immuno-detected with HIV-1 anti-p24 gag mAb.
Same amounts of viral and cellular proteins were immunodetected with an anti-p24 mAb.

[3] = test system: HIV-1 IIIB; assay type: cell-based
Procedure: The inhibitory activity of the constrained peptide described in Example 1 on infection by laboratory-adapted HIV-1 strains was determined as described in Jiang et al. (1991).

[4] = test system: HIV-1 gag-mStrawberry fusion protein; test: Direct colocalization with gag by confocal microscopy; assay type: cell-based; conditions: 293T cells transfected with pEF6A-gag-mStrawberry; near the plasma membrane
Procedure: A direct colocalization study was performed by transfecting 293T cells with pEF6A-gag-mStrawberry for 4 hr and then washing cells once with PBS. A serum-free or serum-containing medium containing FITC-conjugated peptide was added for another 20 hr culture. After three washes, the cells were examined and imaged under a Zeiss LSM510 laser scanning confocal microscope.

[5] = Circular dichroism, secondary structure in solution; assay type: physicochemical; conditions: 25° C., 1×PBS, 1-20% acetonitrile, 100 μM peptide
Procedure: We used circular dichroism (CD) to characterize the secondary structure of NYAD-1 and CAI in the uncomplexed state in solution. CD spectra were obtained on a Jasco J-715 Spectropolarimeter (Jasco Inc.) at 20° C. using the standard measurement parameters in Tris-HCl buffer (20 mM Tris, pH 8.0) in the presence of 1-15% (v/v) acetonitrile at a final concentration of 125-500 μM. In all the samples, the final concentrations of peptides and salt were always the same, and the spectra were corrected by subtracting the CD spectra of the appropriate reference solvent. Percent α-helix was calculated from molar ellipticity value at 222 nm.
The CD spectra were measured at 25° C. in 1×PBS in the presence of 1-20% (v/v) acetonitrile at a final concentration of peptide of 100 μM.
We used CD spectroscopy to determine the secondary structure characteristics of the stapled peptide NYAD-36. The corresponding linear peptide, NYAD-41, was used as control.

**Q.** With `c1cc(CN2CCCNCCNCCCNCC2)ccc1CN1CCCNCCNCCCNCC1` [AMD3100, reference compound] as the compound, how does the “viral infectivity of particles released by treated cells” value (from here on “viral infectivity of particles released”) ([1]; 1 ug/ml) read?
**A.** very little to no viral infectivity

**Q.** What does the source list for `CC[C@H](C)[C@H](N)C(=O)N[C@@H](CO)C(=O)N[C@@H](Cc1ccccc1)C(=O)N[C@@]1(C)CCC/C=C\CCC[C@@](C)(C(=O)N[C@@H](Cc2ccc(O)cc2)C(=O)N[C@@H](Cc2ccc(O)cc2)C(=O)NCC(=O)N[C@@H](CCCNC(=N)N)C(N)=O)NC(=O)[C@H](CC(C)C)NC(=O)[C@H](CC(C)C)NC(=O)[C@H](CCC(=O)O)NC1=O` [NYAD-15] (H-ISF[S5]ELL[S5]YYGR-NH2; staple (Z) 4-8; N-terminus and C-terminus assumed)?
**A.** p24 and p55 levels in the cellular preparation [2]: dose-dependent decrease; p24 and p55 levels in the viral preparation (viral lysates) [2]: dose-dependent decrease; IC50 [3]: 4.86 ± 1.55 µM

**Q.** What does the source list for `CC[C@H](C)[C@H](N)C(=O)N[C@H](C(=O)N[C@@H](Cc1ccccc1)C(=O)N[C@@]1(C)CCC/C=C\CCC[C@@](C)(C(=O)N[C@@H](Cc2ccc(O)cc2)C(=O)N[C@@H](Cc2ccc(O)cc2)C(=O)NCC(=O)N[C@@H](CCC(=O)O)C(=O)N[C@@H](CCCCN)C(N)=O)NC(=O)[C@H](CC(C)C)NC(=O)[C@H]([C@@H](C)CC)NC(=O)[C@H](CC(=O)O)NC1=O)[C@@H](C)O` [NYAD-23] (H-ITF[S5]DIL[S5]YYGEK-NH2; staple (Z) 4-8; N-terminus and C-terminus assumed)?
**A.** p24 and p55 levels in the cellular preparation [2]: dose-dependent decrease; p24 and p55 levels in the viral preparation (viral lysates) [2]: dose-dependent decrease; IC50 [3]: 9.1 ± 0.74 µM

**Q.** For `CC[C@H](C)[C@H](N)C(=O)N[C@@H](CO)C(=O)N[C@@H](Cc1ccccc1)C(=O)N[C@@]1(C)CCC/C=C\CCC[C@@](C)(C(=O)N[C@@H](Cc2ccc(O)cc2)C(=O)N[C@@H](Cc2ccc(O)cc2)C(=O)NCC(=O)N[C@@H](CCC(=O)O)C(=O)N[C@@H](CCCCN)C(N)=O)NC(=O)[C@H](CC(C)C)NC(=O)[C@H](CC(C)C)NC(=O)[C@H](CCC(=O)O)NC1=O` [NYAD-24] (H-ISF[S5]ELL[S5]YYGEK-NH2; staple (Z) 4-8; N-terminus and C-terminus assumed), which IC50 [3] is on record?
**A.** 13.8 ± 3.57 µM

**Q.** For `CC[C@H](C)[C@H](N)C(=O)N[C@H](C(=O)N[C@@H](Cc1ccccc1)C(=O)N[C@@]1(C)CCC/C=C\CCC[C@@](C)(C(=O)N[C@@H](Cc2ccc(O)cc2)C(=O)N[C@@H](Cc2ccc(O)cc2)C(=O)NCC(=O)N[C@@H](CCCNC(=N)N)C(N)=O)NC(=O)[C@H](CC(C)C)NC(=O)[C@H](Cc2c[nH]c3ccccc23)NC(=O)[C@H](CC(=O)O)NC1=O)[C@@H](C)O` [NYAD-31] (H-ITF[S5]DWL[S5]YYGR-NH2; staple (Z) 4-8; N-terminus and C-terminus assumed), which IC50 [3] is on record?
**A.** 13.5 ± 1.4 µM

**Q.** Which IC50 [3] does the source give for `CC[C@H](C)[C@H](N)C(=O)N[C@@H](CO)C(=O)N[C@@H](Cc1ccccc1)C(=O)N[C@]1(C)CCCCCC/C=C\CCC[C@@](C)(C(=O)N[C@@H](CCCNC(=N)N)C(N)=O)NC(=O)[C@H](Cc2ccc(O)cc2)NC(=O)[C@H](Cc2ccc(O)cc2)NC(=O)[C@H](CCC(N)=O)NC(=O)[C@H](CC(C)C)NC(=O)[C@H](Cc2c[nH]c3ccccc23)NC(=O)[C@H](CCC(=O)O)NC1=O` [NYAD-33] (H-ISF[R8]EWLQYY[S5]R-NH2; staple (Z) 4-11; N-terminus and C-terminus assumed) here?
**A.** 3.37 ± 0.06 µM

**Q.** What about the “viral infectivity of particles released” value ([1]; 7 μM) of the same compound?
**A.** very little to no viral infectivity

**Q.** And the “viral infectivity of particles released” value ([1]; 14 μM)?
**A.** very little to no viral infectivity

**Q.** And the “infectivity respect to the control” value ([1]; about 7 μM)?
**A.** 25%

**Q.** Which IC50 [3] does the source give for `CC[C@H](C)[C@H](N)C(=O)N[C@@H](CO)C(=O)N[C@@H](Cc1ccccc1)C(=O)N[C@@]1(C)CCC/C=C\CCC[C@@](C)(C(=O)N[C@@H](Cc2ccc(O)cc2)C(=O)N[C@@H](Cc2ccc(O)cc2)C(=O)NCC(=O)N[C@@H](CCCNC(=N)N)C(=O)N[C@@H](CO)C(=O)NCC(=O)N[C@@H](CO)C(N)=O)NC(=O)[C@H](CC(C)C)NC(=O)[C@H](CC(C)C)NC(=O)[C@H](CCC(=O)O)NC1=O` [NYAD-34] (H-ISF[S5]ELL[S5]YYGRSGS-NH2; staple (Z) 4-8; N-terminus and C-terminus assumed) here?
**A.** 12.7 ± 0.9 µM

**Q.** For `CC[C@H](C)[C@H](N)C(=O)N[C@@H](CO)C(=O)N[C@@H](Cc1ccccc1)C(=O)N[C@@]1(C)CCC/C=C\CCC[C@@](C)(C(=O)N[C@@H](Cc2ccc(O)cc2)C(=O)N[C@@H](Cc2ccc(O)cc2)C(=O)NCC(=O)N[C@@H](CCC(=O)O)C(=O)N[C@@H](CO)C(=O)NCC(=O)N[C@@H](CO)C(N)=O)NC(=O)[C@H](CC(C)C)NC(=O)[C@H](CC(C)C)NC(=O)[C@H](CCC(=O)O)NC1=O` [NYAD-35] (H-ISF[S5]ELL[S5]YYGESGS-NH2; staple (Z) 4-8; N-terminus and C-terminus assumed), which IC50 [3] is on record?
**A.** 4.51 ± 0.14 µM

**Q.** What does the source list for `CC[C@H](C)[C@H](N)C(=O)N[C@@H](CO)C(=O)N[C@@H](Cc1ccccc1)C(=O)N[C@@]1(C)CCC/C=C\CCC[C@@](C)(C(=O)N[C@@H](Cc2ccc(O)cc2)C(=O)N[C@@H](Cc2ccc(O)cc2)C(=O)NCC(=O)N[C@@H](CCC(=O)O)C(=O)N[C@@H](CO)C(=O)NCC(=O)N[C@@H](CO)C(N)=O)NC(=O)[C@H](CC(C)C)NC(=O)[C@H]([C@@H](C)CC)NC(=O)[C@H](CCC(=O)O)NC1=O` [NYAD-37] (H-ISF[S5]EIL[S5]YYGESGS-NH2; staple (Z) 4-8; N-terminus and C-terminus assumed)?
**A.** p24 and p55 levels in the cellular preparation [2]: dose-dependent decrease; p24 and p55 levels in the viral preparation (viral lysates) [2]: dose-dependent decrease; IC50 [3]: 8 ± 0.36 µM; viral infectivity of particles released by treated cells ([1]; 15 μM): very little to no viral infectivity; viral infectivity of particles released by treated cells ([1]; 30 μM): very little to no viral infectivity

**Q.** Which “colocalization with gag-mStrawberry” value [4] does the source give for “FITC-conjugated NYAD-1: NYAD-1 N-terminally derivatized with β-Ala and FITC ({FITC-βAla}-ITF[S5]DLL[S5]YYGP-NH2; staple 4-8; also: X4, X8 also described as (S)-2-(2'-pentenyl)alanine)” here?
**A.** significant fraction colocalized

**Q.** For “NYAD-41: SEQ ID NO:20, linear peptide corresponding to NYAD-36, used as control (ISFDELLDYYGESGS; Linear peptide NYAD-41)”, which “secondary structure by CD” value [5] is on record?
**A.** random nature
